Measured values reported in ChEMBL document CHEMBL1144639, “Imidazo[1,2-a]pyridines with potent activity against herpesviruses” (Bioorg Med Chem Lett, 2007).

Legend:
Human alphaherpesvirus 1 = experiment: Antiviral activity against HSV1 SC16 in Vero cells by capture hybrid method; assay type: functional, organism-based; details: Human alphaherpesvirus 1, SC16, Vero
[1] = Cytotoxicity against Vero cells; assay type: cell-based; details: chlorocebus sabaeus

| Structure (SMILES) | IC50 (Human alphaherpesvirus 1) | CC50 [1] |
| --- | --- | --- |
| Cc1cccn2c(-c3ccnc(NC4CCCC4)n3)c(-c3ccc(F)cc3)nc12 | 1.53 µM | > 40 µM |
| Fc1ccc(-c2nc3c(NC4CCCC4)cc(Cl)cn3c2-c2ccnc(NC3CCCC3)n2)cc1 | 0.37 µM | > 40 µM |
| Fc1ccc(-c2nc3c(NC4CCCC4)cc(Br)cn3c2-c2ccnc(NC3CCCC3)n2)cc1 | 0.22 µM | > 40 µM |
| CCCCNc1cc(Br)cn2c(-c3ccnc(NC4CCCC4)n3)c(-c3ccc(F)cc3)nc12 | 0.3 µM | > 40 µM |
| Fc1ccc(-c2nc3c(NC4CCCC4)cccn3c2-c2ccnc(NC3CCCC3)n2)cc1 | 0.59 µM | > 40 µM |
| COc1ccc(-c2nc3c(NC4CCCC4)cccn3c2-c2ccnc(NC3CCCC3)n2)cc1 | 0.48 µM | > 10 µM |
| Cc1cc(NC2CC2)cn2c(-c3ccnc(NC4CCCC4)n3)c(-c3ccc(F)cc3)nc12 | 0.12 µM | > 40 µM |
| Oc1ccc(-c2nc3c(NC4CCCC4)cccn3c2-c2ccnc(NC3CCCC3)n2)cc1 | 3.4 µM | > 40 µM |
| COc1cccc(-c2nc3c(Cl)cccn3c2-c2ccnc(NC3CCCC3)n2)c1 | 1.73 µM | > 40 µM |
| COc1cccc(-c2nc3c(NC4CCCC4)cccn3c2-c2ccnc(NC3CCCC3)n2)c1 | 0.71 µM | > 40 µM |
| Oc1cccc(-c2nc3c(NC4CCCC4)cccn3c2-c2ccnc(NC3CCCC3)n2)c1 | 3.13 µM | > 40 µM |
| N#Cc1ccc(-c2nc3c(NC4CCCC4)cccn3c2-c2ccnc(NC3CCCC3)n2)cc1 | 0.32 µM | > 40 µM |
| N#Cc1cccc(-c2nc3c(NC4CCCC4)cccn3c2-c2ccnc(NC3CCCC3)n2)c1 | 0.36 µM | > 40 µM |
| Cc1ccc(-c2nc3c(NC4CCCC4)cccn3c2-c2ccnc(NC3CCCC3)n2)cc1 | 1.61 µM | > 40 µM |
| Fc1ccc(-c2nc3c(NC4CC4)cccn3c2-c2ccnc(NC3CCCC3)n2)cc1 | 0.51 µM | 33 µM |
| Fc1ccc(-c2nc3c(N4CCCC4)cccn3c2-c2ccnc(NC3CCCC3)n2)cc1 | 1.88 µM | > 40 µM |
| COCCNc1cccn2c(-c3ccnc(NC4CCCC4)n3)c(-c3ccc(F)cc3)nc12 | 0.26 µM | > 40 µM |

| Structure (SMILES) | IC50 (Human alphaherpesvirus 1) | CC50 [1] |
| --- | --- | --- |
| CNc1nccc(-c2c(-c3ccc(F)cc3)nc3c(Cl)cccn23)n1 | 9.3 µM | > 40 µM |
| Fc1ccc(-c2nn3c(NC4CCCC4)cccc3c2-c2ccnc(NC3CCCC3)n2)cc1 | – | > 160 µM |
| Fc1ccc(-c2nc3ccc(Br)cn3c2-c2ccnc(NC3CCCC3)n2)cc1 | 4.08 µM | > 40 µM |
| Fc1ccc(-c2nc3ccc(NC4CCCC4)cn3c2-c2ccnc(NC3CCCC3)n2)cc1 | 0.33 µM | > 40 µM |
| Cc1cc(Br)cn2c(-c3ccnc(NC4CCCC4)n3)c(-c3ccc(F)cc3)nc12 | 1.16 µM | > 40 µM |
| Cc1cc(NC2CCCC2)cn2c(-c3ccnc(NC4CCCC4)n3)c(-c3ccc(F)cc3)nc12 | 0.15 µM | > 40 µM |
| Fc1ccc(-c2nc3c(NC4CCCC4)cccn3c2-c2ccnc(NC3CCCC3)c2)cc1 | – | > 40 µM |
| c1cc(NC2CCCC2)c2nc(-c3ccc(OCC4CC4)cc3)c(-c3ccnc(NC4CCCC4)n3)n2c1 | 0.27 µM | > 40 µM |
| C=CCOc1cccc(-c2nc3c(NC4CCCC4)cccn3c2-c2ccnc(NC3CCCC3)n2)c1 | 0.3 µM | > 40 µM |
| COc1ccc(-c2nc3c(Cl)cccn3c2-c2ccnc(NC3CCCC3)n2)cc1 | 1.43 µM | 30.1 µM |
| C=CCOc1ccc(-c2nc3c(NC4CCCC4)cccn3c2-c2ccnc(NC3CCCC3)n2)cc1 | 0.57 µM | > 40 µM |
| Fc1ccc(-c2nc3c(Cl)cc(Cl)cn3c2-c2ccnc(NC3CCCC3)n2)cc1 | 1.11 µM | > 40 µM |
| CCCCNc1cccn2c(-c3ccnc(NC4CCCC4)n3)c(-c3ccc(F)cc3)nc12 | 0.8 µM | 32 µM |
| CNc1nccc(-c2c(-c3ccc(F)cc3)nc3c(NC4CCCC4)cccn23)n1 | > 5 µM | > 40 µM |
| Fc1ccc(-c2nc3c(Br)cc(Br)cn3c2-c2ccnc(NC3CCCC3)n2)cc1 | 0.8 µM | > 40 µM |
| Fc1ccc(-c2nc3ccccn3c2-c2ccnc(NC3CCCC3)n2)cc1 | 3.3 µM | > 40 µM |
| Nc1nc2c(ncn2COCCO)c(=O)[nH]1 [ACYCLOVIR] | – | > 200 µM |
